How the values were obtained:
Enterococcus faecalis [1] = test: Zone of inhibition on inoculated TSA plates; type: cell-based; details: E. faecalis; for bactericidal effect upon dilution (zone of inhibition): diluted five- or ten-fold
Description: In the first test, the zone of inhibition was measured on plates inoculated with Enterococcus faecalis. An overnight culture of E. faecalis (ATCC 4082) was standardized to 0.11 optical density (O.D.) measured at 570 nm. One hundred microliters of the microorganism was spread onto a trypticase soy agar (TSA) plate with the use of a sterile L-shaped glass rod. One-quarter inch sterile S & S filter paper (Schleicher & Schuell) was placed in each of the four quadrants of the TSA plate. […] Eight replicates were prepared for each of the sample solutions. The plates were incubated overnight at 37° C. for 24 hours and the zones of inhibition were measured in millimeters.

Enterococcus faecalis [2] = test: Minimum inhibitory concentration (serial dilution, turbidity); type: cell-based
Description: In the second test, the minimum inhibitory concentration (MIC) was measured. E. faecalis was cultured overnight and the concentration was adjusted to 0.11 O.D. at 570 nm. The test solutions were serially diluted from 1:2 up to 1:2048 dilutions. One ml of 2× trypticase soy broth (TSB) and the same amount of a test solution were mixed in various tubes. One hundred microliters of the standardized E. faecalis was added into each of the test tubes and were incubated overnight at 37° C. The presence or absence of turbidity was determined the following day.

[3] = Removal of smear layer from root end cavity preparations (SEM); design: species or system human; details: solution left in cavity five minutes
Description: Extracted, human single-rooted teeth were used in this part of the experiment.
The working length of each canal was determined by placing and moving a #15 K file apically in the canal until it exited from the apical foramen.
The access cavities were closed with Cavit. The roots were then wrapped in moist gauze and stored in a closed glass bottle at room temperature and 100% humidity for one week.
Two coats of nail polish were applied to the external surface of each root.
Apical cavity preparations were made in each of the roots. A #1 round bur in a high-speed handpiece with water coolant was used to create a small opening into the gutta-percha filling material.
The roots were then randomly divided into two groups. […] The solution was left in the cavity for five minutes and then rinsed with 10 ml of distilled water. In Group 2, the preparations were rinsed with 5 ml of ADD. This solution was also left in the root end cavities for five minutes and then rinsed with 5 ml of distilled water. After drying with paper points, the roots were split in halves using a slow speed diamond saw (Labut Agar Scientific, Cambridge, England).
Half of each sample was placed into a gluteraldehyde solution for 24 h. […] The presence or absence of smear layer on the root end cavity preparations was evaluated. The erosion of dentinal tubules was also assessed.

[4] = Removal of smear layer from root canal walls (SEM); details: extracted human teeth; 5 min contact; ADD group instrumented with 1% sodium hypochlorite as irrigant
Description: Extracted maxillary and mandibular human teeth were used for this study. The working lengths of these teeth were between 21-25 millimeters. The teeth were scaled of any calculus and other surface debris (soft tissue and/or alveolar bone) using hand scalers. After preparing conventional access preparations through the incisal or occlusal surfaces of the test teeth, a K-type file (size 10) was used to determine the working length of each tooth by penetrating the apical foramen and pulling back to the clinical apical foramen. […] The apex of each tooth was enlarged to size 30 files.
After complete cleaning and shaping, the canals were irrigated with 1 ml of NaOCl and a barbed broach wrapped with cotton was taken to the canal terminus and left for five minutes to ensure uniform direct contact of the irrigant with the entire canal. Upon removal of the barbed broach, the canal was irrigated with 4 ml of NaOCl and rinsed with 10 ml of distilled water. Group 2: NSET was performed using 1% sodium hypochlorite as root canal irrigant. […] Upon removal of the barbed broach, the canal was irrigated with 4 ml of ADD and rinsed with 10 ml of distilled water. […] The presence or absence of smear layer at the coronal, middle, and apical portion of each canal was evaluated. The erosion of dentinal tubules was also assessed at different levels of each canal.

[5] = test system: root canals infected with whole saliva; test: Disinfection of human root canals infected with whole saliva
Excerpt: It will be apparent to those of skill in the art that a solution such as the one described herein (i.e., one that has improved biocompatibility and is effective in a shorter period of time than previously known treatments) is highly desirable, particularly in the health care fields. Studies have also shown that, unlike other previously known dental irrigants, the solution of the present invention maintains the desired antimicrobial effect at dilutions up to 1:200. […] In a further study undertaken to evaluate the antimicrobial properties of the presently described solution, human root canals were infected with whole saliva and then treated with either 5.25% NaOCl or a solution of doxycycline, polysorbate 80, and citric acid. While the NaOCl effectively disinfected only 37 out of 60 teeth, the solution of the present invention disinfected 59 out of 60 teeth. The importance and desirability of such improved antimicrobial properties can be easily appreciated, particularly by those of skill in the art.

[6] = Removal of smear layer from coronal cavity preparations (SEM); details: third molars, Class I preparations; solution left 5 minutes
Description: Sound third molars were collected and stored in deionized water. Class I preparations were made following conventionally accepted procedures in the occlusal surfaces of the teeth. The teeth were randomly divided into two groups. […] After this treatment each preparation was rinsed with copious amounts of water to eliminate the residual effect of sodium hypochlorite. Group 2: ADD solution was left in the cavity for 5 minutes. After this treatment each preparation was rinsed with copious amounts of distilled water to eliminate the residual effect of ADD. After irrigation, the crowns were split in half using a diamond saw and constant water spray. Half of each sample was placed into a gluteraldehyde solution for 24 h. The fixed specimens were then rinsed twice by a sodium buffered solution (pH 7.2), treated with osmium tetraoxide for one hour, rinsed with ascending concentrations of ethyl alcohol 30%-100%, and then placed in a dessicator for 24 h. […] The presence or absence of smear layer on the walls of each cavity was evaluated. The erosion of dentinal tubules was also assessed.

[7] = Removal of smear layer from prepared crown preparations (SEM); details: saturated cotton pellet left 5 minutes
Description: Sound third molars were collected and stored in deionized water. Crown preparations were made following conventionally accepted procedures. The samples were randomly divided into two groups.
After this treatment each preparation was rinsed with copious amounts of distilled water to eliminate the residual effect of sodium hypochlorite.
Group 2: A cotton pellet saturated with ADD solution was left on the crown preparations for 5 minutes. After this treatment each preparation was rinsed with copious amounts of distilled water to eliminate residual ADD.
After irrigation, the crown preparations were split in half using a diamond saw and constant water spray. Half of each sample was placed into a gluteraldehyde solution for 24 h. The fixed specimens were then rinsed twice by a sodium buffered solution (pH 7.2), treated with osmium tetraoxide for one hour, rinsed with ascending concentrations of ethyl alcohol 30%-100%, and then placed in a dessicator for 24 h. Finally, each specimen was mounted on a special button, and coated with 25 μm of gold-palladium (Au—Pd) (Wakabayashi et al., 1995). The presence or absence of smear layer on the walls of each cavity was evaluated. The erosion of dentinal tubules was also assessed.

[8] = Removal of smear layer from root surfaces of teeth (SEM); details: saturated cotton pellet left 5 minutes
Description: The coronal one-third root surfaces of these teeth were curetted following conventionally accepted procedures. The samples were randomly divided into two groups.
After this treatment each root surface was rinsed with copious amounts of distilled water to eliminate the residual effect of sodium hypochlorite.
Group 2: A cotton pellet saturated with ADD solution was left on the root surface preparations for 5 minutes. After this treatment each preparation was rinsed with copious amounts of distilled water to eliminate the residual effect of ADD.
After irrigation, the entire tooth was split in half using a diamond saw and constant water spray. Half of each sample was placed into a gluteraldehyde solution for 24 h. The fixed specimens were then rinsed twice by a sodium buffered solution (pH 7.2), treated with osmium tetraoxide for one hour, rinsed with ascending concentrations of ethyl alcohol 30%-100%, and then placed in a dessicator for 24 h. Finally, each specimen was mounted on a special button, and coated with 25 μm of gold-palladium (Au—Pd) (Wakabayashi et al., 1995). The presence or absence of smear layer on the root surfaces was evaluated. The erosion of dentinal tubules was also assessed.

## O=C(O)CN(CCN(CC(=O)O)CC(=O)O)CC(=O)O [EDTA, ethylenediamine tetraacetic acid]
Enterococcus faecalis [1]
  bactericidal effect upon dilution (zone of inhibition): no bactericidal properties
Enterococcus faecalis [2]; E. faecalis, overnight at 37° C., turbidity
  dilution up to which solution is effective (minimum inhibitory concentration test): no antibacterial effects at any dilution level
Enterococcus faecalis [2]; summary statement in description
  dilution limit of antimicrobial / bactericidal effect: ineffective in anything other than an undiluted state

## [Na+].[O-]Cl [5.25% NaOCl, sodium hypochlorite]
Enterococcus faecalis [1]
  bactericidal effect upon dilution (zone of inhibition): some bactericidal effect
Enterococcus faecalis [1]; undiluted, 1:5, 1:10
  zone of inhibition, undiluted versus diluted: more effective when undiluted than at 1:5 or 1:10 dilution
[3]
  presence or absence of smear layer on root end cavity preparations: presence of smear layer on the surface of all cavity preparations
[4]
  presence or absence of smear layer on root canal walls: presence of smear layer on the entire root canal walls of all teeth
[5]
  teeth disinfected: 37 out of 60
[6]
  presence or absence of smear layer on cavity walls: presence of smear layer on the walls of all teeth
[7]
  presence or absence of smear layer on crown preparations: presence of smear layer on the surface of all crowns
[8]
  presence or absence of smear layer on root surfaces: presence of smear layer on the surface of all roots

— patent US8075874B2, “Methods for disinfecting and removing smear layer from tooth surfaces” (Dentsply International, Inc., priority 2002, dated 2011)
